The structures appear in SMILES notation.

This assay deals with T1, Tyrosine-protein phosphatase non-receptor type 22 (Homo sapiens, UniProt Q9Y2R2).
T1 sequence (Q9Y2R2 whole entry): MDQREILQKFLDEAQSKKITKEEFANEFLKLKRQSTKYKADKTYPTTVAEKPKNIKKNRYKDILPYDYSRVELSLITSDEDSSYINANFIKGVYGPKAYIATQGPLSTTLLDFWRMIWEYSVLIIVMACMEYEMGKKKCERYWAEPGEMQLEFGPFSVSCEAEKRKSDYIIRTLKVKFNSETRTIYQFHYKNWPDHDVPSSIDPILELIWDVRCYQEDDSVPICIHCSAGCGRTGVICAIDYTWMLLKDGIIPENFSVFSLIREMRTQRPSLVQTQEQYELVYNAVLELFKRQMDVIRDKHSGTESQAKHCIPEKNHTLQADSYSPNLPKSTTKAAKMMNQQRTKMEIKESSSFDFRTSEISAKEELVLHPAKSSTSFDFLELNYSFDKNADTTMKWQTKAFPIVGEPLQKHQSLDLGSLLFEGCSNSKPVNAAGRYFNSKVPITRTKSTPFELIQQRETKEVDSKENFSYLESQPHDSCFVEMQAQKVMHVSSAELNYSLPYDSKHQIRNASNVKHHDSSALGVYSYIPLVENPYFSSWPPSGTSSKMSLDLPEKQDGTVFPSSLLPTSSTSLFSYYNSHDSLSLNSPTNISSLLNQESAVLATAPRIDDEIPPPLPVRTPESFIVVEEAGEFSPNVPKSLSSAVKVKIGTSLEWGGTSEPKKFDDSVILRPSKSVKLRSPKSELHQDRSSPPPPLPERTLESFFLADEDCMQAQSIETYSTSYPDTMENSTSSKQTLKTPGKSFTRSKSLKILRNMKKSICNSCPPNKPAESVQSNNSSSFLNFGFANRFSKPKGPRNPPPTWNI
Description: Inhibition of LYP expressed in Escherichia coli BL21 using pNPP substrate
One may read the IC50 as the concentration needed to halve the response being measured. Low readings indicate higher potency, high ones lower potency. Regarding `Cc1ccc2[nH]c(=O)c(C(c3nnnn3C3CCCC3)N3CCN(c4ccccc4)CC3)cc2c1` (stereo not drawn), the IC50 is 30.7 µM.

For `COc1ccc(N2CCN(C(c3cc4cc(C)ccc4[nH]c3=O)c3nnnn3C3CCCC3)CC2)cc1` (stereo not drawn), the IC50 is 31.5 µM. The IC50 values of the last two compounds are within 1.5-fold of each other. The value for `Cc1ccc2[nH]c(=O)c(C(c3nnnn3C3CCCC3)N(Cc3ccccc3)Cc3ccccc3)cc2c1` (stereo not drawn) was 13.3 µM; that for `Cc1ccc2[nH]c(=O)c(C(c3nnnn3C3CCCC3)N3CCN(c4ccc(O)cc4)CC3)cc2c1` (stereo not drawn) was > 40 µM; that for `Cc1ccc2[nH]c(=O)c(C(c3nnnn3C3CCCC3)N3CCN(c4ccc(F)cc4)CC3)cc2c1` (stereo not drawn) was 30.5 µM. For the compound `CCN1CCN(C(c2cc3cc(C)ccc3[nH]c2=O)c2nnnn2C2CCCC2)CC1` (stereo not drawn), the IC50 is > 40 µM. The value for `Cc1ccc2[nH]c(=O)c(C(c3nnnn3C3CCCC3)N3CCN(C)CC3)cc2c1` (stereo not drawn) was > 40 µM; that for `Cc1ccc2[nH]c(=O)c(C(c3nnnn3C3CCCC3)N3CCC(C)CC3)cc2c1` (stereo not drawn) was 20.6 µM; that for `Cc1ccc2[nH]c(=O)c(C(c3nnnn3C3CCCC3)N3CCN(Cc4ccccc4)CC3)cc2c1` (stereo not drawn) was > 40 µM.

Regarding `Cc1ccc2[nH]c(=O)c(C(c3nnnn3-c3ccccc3)N3CCCC4(CCCCC4)C3)cc2c1` (stereo not drawn), the IC50 was found to be 11.2 µM.

For `Cc1ccc2[nH]c(=O)c(C(c3nnnn3C3CCCC3)N3CCN(c4nc5ccccc5s4)CC3)cc2c1` (stereo not drawn), the IC50 came out at 30 µM. The value for `COc1ccccc1N1CCN(C(c2cc3cc(C)ccc3nc2O)c2nnnn2C2CCCC2)CC1` (stereo not drawn) was > 40 µM; that for `Cc1ccc2[nH]c(=O)c(C(c3nnnn3C(C)C)N3CCCC4(CCCCC4)C3)cc2c1` (stereo not drawn) was 21.2 µM.

For the origin of these results see ChEMBL document CHEMBL2157931, “Discovery of a novel series of inhibitors of lymphoid tyrosine phosphatase with activity in human T cells” (J Med Chem, 2011).
